# Laboratory results published in paper PMC10046692 (Cancers, 2023).
# Columns and labels:
# C4-2B cells [1] = test: Soft agar colony formation assay; type: cell-based, human; conditions: p = 0.001
# From the text: (§1) The CytoSelectTM 96-well In Vitro Tumor Sensitivity Assay Kit was used to perform the colony formation assay to detect anchorage-independent growth (Cell Biolabs, Inc., San Diego, CA, USA). LNCaP, C4-2B, and 22Rv1 cells (5 × 10^3 cells) that had been exposed to either the vehicle or SBI-46 were harvested and used for the assay following the manufacturer’s instructions. Colonies were manually counted after being stained with 0.005% crystal violet after ten days.
# C4-2B cells [2] = test: Annexin V-FITC / PI apoptosis assay; type: cell-based, human; conditions: p = 0.01
# From the text: As previously described, apoptosis was detected using the annexin V-fluorescein isothiocyanate (FITC) versus propidium iodide (PI) assay (FITC Annexin V Apoptosis Detection Kit I, BD Pharminogen).
# HDAC6 = target: T1, HDAC6 (Homo sapiens, UniProt Q9UBN7); test: HDAC inhibition, fluorescence-based assay (BPS Bioscience); type: biochemical; conditions: HDAC6 versus HDAC1
# T1 construct: purchased BPS Bioscience (contract research organization that ran the assay)
# T1 sequence (Q9UBN7 1-1215): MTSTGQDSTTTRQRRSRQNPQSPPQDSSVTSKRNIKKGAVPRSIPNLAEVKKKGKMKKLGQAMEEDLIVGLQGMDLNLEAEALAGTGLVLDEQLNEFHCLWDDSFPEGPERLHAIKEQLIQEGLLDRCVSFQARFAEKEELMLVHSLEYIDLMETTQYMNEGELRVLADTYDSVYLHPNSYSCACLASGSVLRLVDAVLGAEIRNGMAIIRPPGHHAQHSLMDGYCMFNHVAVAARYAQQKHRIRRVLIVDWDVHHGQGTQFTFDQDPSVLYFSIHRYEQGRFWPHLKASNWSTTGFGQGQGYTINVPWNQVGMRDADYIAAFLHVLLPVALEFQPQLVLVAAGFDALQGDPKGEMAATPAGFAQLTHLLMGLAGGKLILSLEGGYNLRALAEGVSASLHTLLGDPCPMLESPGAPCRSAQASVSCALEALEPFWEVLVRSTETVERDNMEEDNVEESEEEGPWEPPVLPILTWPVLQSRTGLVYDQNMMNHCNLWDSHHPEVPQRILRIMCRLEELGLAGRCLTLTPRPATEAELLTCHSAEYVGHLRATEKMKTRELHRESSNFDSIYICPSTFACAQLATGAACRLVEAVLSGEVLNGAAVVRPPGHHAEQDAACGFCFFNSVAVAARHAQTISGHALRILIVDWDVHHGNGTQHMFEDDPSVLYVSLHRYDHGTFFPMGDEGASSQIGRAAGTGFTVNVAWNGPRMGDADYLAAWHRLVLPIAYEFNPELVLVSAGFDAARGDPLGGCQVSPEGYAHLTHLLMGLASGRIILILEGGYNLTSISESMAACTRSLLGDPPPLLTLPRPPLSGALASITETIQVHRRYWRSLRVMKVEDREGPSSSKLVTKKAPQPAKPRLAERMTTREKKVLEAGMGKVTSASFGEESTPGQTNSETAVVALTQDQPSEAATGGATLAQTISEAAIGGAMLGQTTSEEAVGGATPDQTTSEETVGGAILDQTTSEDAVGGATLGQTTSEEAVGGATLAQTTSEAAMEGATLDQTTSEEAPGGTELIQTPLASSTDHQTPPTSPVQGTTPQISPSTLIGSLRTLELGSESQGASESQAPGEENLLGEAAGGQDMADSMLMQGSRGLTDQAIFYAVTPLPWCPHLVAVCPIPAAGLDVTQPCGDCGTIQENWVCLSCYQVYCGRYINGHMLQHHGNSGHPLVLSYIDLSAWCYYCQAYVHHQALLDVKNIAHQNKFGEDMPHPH
# Protocol: In vitro HDAC inhibition was performed by the contract research organization (CRO) BPS Bioscience while an AR-binding assay was performed by Eurofins Panlabs. (St. Charles, MO, USA). These assays were performed through contract agreements with these CROs.
# RWPE-1 cells = type: cell-based
# Protocol: (§2) The effect of the treatments on prostate cancer and normal prostate epithelial cells’ (LNCaP, 22Rv1, C4-2B, PC3, and RWPE1) viability was evaluated using the Alamar blue assay. Cells were seeded into 96-well plates, and after growing to 60–75% confluency, they were treated with vehicle control (DMSO, Sigma Aldrich, St. Louis, MO, USA) or various concentrations of SBI-46 in respective media for 24 h. At the termination of exposure, cells were incubated with 100 μL of 3% Alamar Blue solution in a complete growth medium at 37 °C for 2 h. Absorbance was measured, and data were analyzed following the manufacturer’s instructions (Life Technologies Corporation, Eugene, OR, USA).
# LNCaP cells [3] = test: Soft agar colony formation assay; type: cell-based, Human; conditions: p = 0.001
# From the text: as §1
# 22Rv1 cells [4] = test: Soft agar colony formation assay; type: cell-based, Human; conditions: p = 0.001
# From the text: as §1
# VERO cells = test: cells; type: cell-based
# Protocol: (§3) Human PCa cells (LNCaP and 22Rv1) and normal prostate epithelial (RWPE-1) and kidney (HEK-293 and VERO) cells were obtained from American […] (ATCC, Manassas, VA, USA). C4-2B was obtained from the ViroMed Laboratories (Minneapolis, MN). The cells were grown on a specified medium previously described. Dihydrotestosterone (DHT) (1 nM) (Cerilliant, TX, USA) studies were performed in phenol red-free RPMI1640 supplemented with 10% charcoal-stripped FBS (Gemini, West Sacramento, CA, USA).
# HEK-293 cells = test: cells; type: cell-based
# Protocol: as §3
# [5] = test system: AR-FL, AR-V7 and PSA expression in CRPC cells; test: Western blot of AR-FL, AR-V7 and PSA expression; type: cell-based, Human
# [6] = test system: acetylated H4 and tubulin in LNCaP cells; test: Western blot of H4 and tubulin acetylation (intracellular HDAC inhibition); type: cell-based, Human; conditions: 0.5 and 5 µM, 6 h
# Protocol: To probe H4 and tubulin acetylation status, LNCaP cells were seeded into a 6-well plate at 1 × 10^6/well in RPMI for 24–48 h until the confluency reached 80%. […] Cells were treated for 6 h and scraped out of the well. The cells were washed with cold PBS three times and lysed with RIPA buffer (110 μL) (VWR, VWRVN653—100 mL) containing phosphatase inhibitor (Fisher Thermo, A32957, Waltham, MA, USA) and protease inhibitor (Fisher Thermo, A32955). The cell lysates were vortexed for 15 s, followed by sonication for 90 s. The lysates were then centrifuged at 14,000 rpm for 10 min, and the supernatants were collected. The total protein concentration was determined using a BCA protein assay kit (BioVision, K813-2500, Milpitas, CA, USA). Based on the results from the BCA assay, the lysates were diluted to make an equal protein concentration, and 20 μg of each lysate was loaded to each well of the TGX MIDI 4–20% gel (Biorad, cat. 5671093, Hercules, CA, USA) and ran at 150 V for 70 min. […]
# 22Rv1 xenograft tumors = test: Subcutaneous xenograft study in nude mice; type: in vivo; conditions: 20 mg/kg b.w. orally, five days/week for four weeks
# Protocol: (§4) All animals were maintained in germ-free environments, and the study was carried out per IACUC guidelines that the University of Louisville authorized. Athymic nude Balb/c mice (nu/nu) were obtained from The Jackson Laboratory at 6 weeks of age. C4-2B and 22Rv1 cells (1–1.5 × 10^6, approximately) were injected into separate flanks of the mice (n = 6) for subcutaneous tumor xenograft studies using a final volume of 100 μL of phosphate-buffered saline and Matrigel (1:1). Once the tumors reached ~50–100 mm^3, the mice were randomly divided into two groups; one group received a vehicle and the other groups received SB1-46 (20 mg/kg) orally for […] for 4 weeks. Mice were monitored twice weekly, and tumor volumes were measured once a week.
# (§5) Finally, in a nude mice model, we evaluated the efficacy of orally administered SBI-46 in xenograft tumors from 22Rv1 and C4-2B cells. Athymic BALB/c nude mice were subcutaneously injected with 22Rv1 and C4-2B (1 × 10^6 cells), and when the tumors reached 50–100 mm^3, either the vehicle or SBI-46 (20 mg/kg b.w.) were given orally for five days/week for four weeks.
# C4-2B xenograft tumors = test: Subcutaneous xenograft study in nude mice; type: in vivo; conditions: 20 mg/kg b.w. orally, five days/week for four weeks
# Protocol: as §4, §5
# LNCaP cells [7] = test: Cell viability, Alamar blue assay; type: cell-based; conditions: Homo sapiens, treated for 24 h, read-out: growth inhibition IC50, LNCaP
# Protocol: as §2
# 22Rv1 cells [8] = test: Cell viability, Alamar blue assay; type: cell-based; conditions: Homo sapiens, treated for 24 h, read-out: growth inhibition IC50, 22Rv1
# Protocol: as §2
# PC-3 cells = test: Cell viability, Alamar blue assay; type: cell-based; conditions: treated for 24 h
# Protocol: as §2
# C4-2B cells [9] = test: Cell viability, Alamar blue assay; type: cell-based; conditions: Homo sapiens; treated for 24 h; read-out: growth inhibition IC50, C4-2B
# Protocol: as §2
# [10] = Toxicity observation in xenograft study; type: in vivo; conditions: xenograft nude mice, 20 mg/kg orally
# Protocol: as §4
# It has been reported that the inhibition of AR-mediated survival signaling by small molecules results in either cell cycle arrest or the induction of apoptosis in CRPC cells. Our studies also observed the induction of pro-apoptotic machinery and concomitant downregulation of pro-survival signaling in SBI-46-treated CRPC cells.
compound,measurement,setting,value
CC1(C)C(=O)N(c2ccc(C#N)c(C(F)(F)F)c2)C(=O)N1Cc1ccc(-c2cn(CCCCCCCC(=O)NO)nn2)cc1F [SBI-46],"colony-forming ability, C4-2B",C4-2B cells [1],reduced the colony-forming ability
same,induction of apoptosis (annexin V-FITC staining),C4-2B cells [2],18%
same,selectivity for HDAC6,HDAC6,~ 4 fold
same,toxicity in normal prostate epithelial cell line RWPE-1,RWPE-1 cells,no significant toxicity
same,"colony-forming ability, LNCaP",LNCaP cells [3],reduced the colony-forming ability
same,"colony-forming ability, 22Rv1",22Rv1 cells [4],reduced the colony-forming ability
same,toxicity in kidney cell line VERO,VERO cells,no significant toxicity
same,IC50,"VERO cells; Chlorocebus sabaeus, Vero, Figure 1B",40 ± 4.57 µM
same,toxicity in kidney cell line HEK-293,HEK-293 cells,no significant toxicity
same,IC50,"HEK-293 cells; Homo sapiens, HEK293, Figure 1B",16.4 ± 2.22 µM
same,expressions of AR-FL and AR-V7,[5],downregulated
same,acetylation status of H4 and α-tubulin,[6],dose-dependent upregulation of acetylated H4 and tubulin
same,"tumor volume and weight, 22Rv1 xenograft",22Rv1 xenograft tumors,significant decrease
same,"tumor volume and weight, C4-2B xenograft",C4-2B xenograft tumors,significant decrease
same,IC50,LNCaP cells [7],500 nM
same,IC50,22Rv1 cells [8],560 nM
same,effect on viability of AR-null PC-3 cells,PC-3 cells,not effective
same,IC50,C4-2B cells [9],480 nM
same,"toxicity in vivo, gross pathological examination of vital organs",[10],not toxic
